In a melting point compilation (Tetko et al.) one finds melting point data, which are given here for 48 compounds.

Structures are written as SMILES.

For orientation: melting point means the temperature, or range, at which the solid turns liquid. Turning to `O=C(O)Cc1coc2cc(O)ccc12`, the melting point was in the range of 127 to 129 °C.

Regarding `CN(C)c1ccc([N+](=O)[O-])c(O)c1`, the melting point was in the range of 140 to 142 °C.

`CC(C)(N)c1noc(C(N)=O)n1` displayed a melting point of 168 to 170 °C.

Turning to `O=C1CCCc2c(Br)cccc2N1`, the melting point was in the range of 169 to 171 °C.

Regarding `Cc1cc(C)cc(N(CCC#N)C(=O)CCl)c1`, the melting point fell in the range of 67 to 69 °C.

Compound `COC(=O)c1ccc(S(=O)(=O)Cl)c(C)c1` yielded a melting point of 51 to 53 °C.

In turn, `CN(CC(=O)O)S(=O)(=O)c1cccs1` registered a melting point of 152 to 156 °C.

The compound `NC(=O)c1ccc(Br)c(C(F)(F)F)c1` showed a melting point of 138 to 140 °C.

For `NC(=O)N1CCOCC1`, the melting point lay in the range of 106 to 108 °C.

In turn, `O=C1CCc2cc(O)ccc2N1` displayed a melting point of 239 to 241 °C.

With `Cc1cccn2cc(COc3ccc(C=O)cc3)nc12`, the melting point was in the range of 122 to 124 °C.

Compound `O=C1CC(c2ccccc2)=NN1` showed a melting point of 246 to 248 °C.

Take `C=CCNC(=O)CC#N`: the melting point fell in the range of 65 to 67 °C.

`Fc1ccc(-c2csc(Nc3ccccc3)n2)cc1` came in with a melting point of 91 to 93 °C.

Take `NC(=O)N1CC(O)CC1C(=O)O` (stereo not drawn): the melting point was in the range of 166 to 168 °C.

`O=C(O)CCNC(=O)c1ccc2[nH]nnc2c1` returned a melting point of 229 to 231 °C.

The compound `O=C(O)c1cc(-c2ccc(Cl)s2)[nH]n1` showed a melting point of 231 to 233 °C.

In turn, `C=CCNC(=O)c1cccc(C#N)c1` displayed a melting point of 79 to 81 °C.

Turning to `N#Cc1ccccc1Oc1ccc(N)cn1`, the melting point is 92 to 94 °C.

Consider `Cn1cc2c(=O)[nH][nH]c(=O)c2c1-c1ccc(N)cc1`, for which the melting point lay within 349 to 351 °C.

The compound `O=C(O)c1cc(S(=O)(=O)N2CCCCC2)ccc1Br` yielded a melting point of 230 to 232 °C.

On to `CCOC(=O)c1sc(N)c(C(=O)OC(C)(C)C)c1C`, for which the melting point was 90 to 92 °C.

On to `CNC(=O)c1ccc(Cl)cc1N`, for which the melting point is 93 to 95 °C.

Compound `N#Cc1cccc(C2(N)CC2)c1` came in with a melting point of 67 to 69 °C.

`CCCCOc1c(Cl)cc(C(=O)O)cc1OCC` registered a melting point of 89 to 91 °C.

Take `Nc1cccn(Cc2ccc(F)cc2)c1=O`: the melting point lay in the range of 110 to 112 °C.

The compound `O=C(NO)c1ccc(Cl)cc1` had a melting point of 170 to 172 °C.

As to `COc1ccccc1C(C)CC(=O)O` (stereo not drawn), the melting point lay within 50 to 52 °C.

In turn, `COc1cc(C=O)ccc1OCC(=O)c1ccc(Cl)c(Cl)c1` came in with a melting point of 137 to 139 °C.

The compound `Cc1cc(C)n(CCCCl)n1` gave a melting point of 202 to 204 °C.

Take `CC(C)Oc1ccc(S(=O)(=O)N(C)C)cc1N`: the melting point fell in the range of 111 to 113 °C.

`NS(=O)(=O)c1ccc(NC(=O)OCC(F)(F)F)cc1` registered a melting point of 192 to 194 °C.

Regarding `CC(=O)c1cc(C(=O)O)n(C)c1`, the melting point is 177 to 181 °C.

With `CCCOc1ccc2c(c1)OCC(C(=O)O)C2` (stereo not drawn), the melting point was 139 to 141 °C.

Turning to `O=C(O)CNC(=O)CC(F)(F)F`, the melting point lay in the range of 122 to 124 °C.

`Nc1ccc2c(ccn2CC(=O)N2CCOCC2)c1` gave a melting point of 209 to 211 °C.

On to `O=C(O)c1cc(-c2ccc(OC(F)F)cc2)nc2ccccc12`, for which the melting point was in the range of 224 to 226 °C.

In turn, `Cc1n[nH]c(C)c1C1COCCN1` (stereo not drawn) showed a melting point of 127 to 129 °C.

The compound `Nc1nnc(-c2ccco2)s1` registered a melting point of 250 to 252 °C.

Regarding `CCC(N)(C(=O)O)c1ccccc1` (stereo not drawn), the melting point lay in the range of 285 to 287 °C.

`O=C(O)CCOc1ccc(-c2ccccc2)cc1`: the melting point is 174 to 176 °C.

In turn, `CCc1ccc(-c2nn(-c3ccccc3)cc2C(=O)O)cc1` returned a melting point of 208 to 210 °C.

Compound `O=[N+]([O-])c1ccc(OC2CCNCC2)cc1` showed a melting point of 97 to 99 °C.

`Clc1ccc2ccc(Cl)c(Cl)c2n1` returned a melting point of 123 to 125 °C.

`COC(=O)c1cccc(CC(=O)O)c1` gave a melting point of 74 to 76 °C.

Take `Cc1cnc(N)nc1`: the melting point fell in the range of 194 to 196 °C.

`O=Cc1cc[nH]n1` came in with a melting point of 139 to 141 °C.

The compound `NC(=O)c1ccc(CSc2ccc(C(=O)O)cc2)cc1` had a melting point of 304 to 306 °C.
